# Measurements published in patent publication US20040242524A1, “Chemotherapeutic composition and method” (priority 1998, published 2004).
# Several values for one entry are separate records, joined by “and”; a condition that tells them apart may be missing. Equal values may be shown once. Read-outs that look alike come from different tables or passages of the source.
# Key:
# B-16 melanoma cells [1] = assay: Inhibition of B-16 melanoma cell proliferation by chemotherapeutic agents ± MCC (MTT reduction); format: cell-based, murine; conditions: for inhibited proliferation: 72 h, MTT; for IC50: B16
# Procedure: B-16 melanoma cells, at 3×10^5 cells/ml, were incubated for 72 h with the chemotherapeutic agents mitomycin-C, 5-fluorouracil and cisplatin in the absence and in the presence of MCC. Cell proliferation was determined using dimethylthiazol-diphenyltetrazolium bromide (MTT) reduction (Mosman et al. Journal of Immunological Methods 65:55-63, 1983). After 72 h, 20 μl of MTT in culture medium was added to each well and incubated for 3 h. Medium was then aspirated from each well, 100 μl of acidified isopropyl alcohol was added to each sample and reduced MTT was solubilized by mixing. The absorbency of the reaction product was determined using an ELISA microplate reader at a wavelength of 570 nm.
# B-16 melanoma cells were incubated with 0.01 to 100 μg/ml of mitomycin-C, with 1 to 100 μg/ml of MCC and with 0.01 to 10 μg/ml of mitomycin-C+1 μg/ml MCC. Mitomycin-C is an anti-tumor antibiotic produced by Streptomyces caespitosus, which cross-links DNA, depolymerizes DNA and forms free radicals.
# B-16 melanoma cells were incubated with 0.01 to 100 μg/ml of 5-fluorouracil, with 1 to 100 μg/ml of MCC and with 0.01 to 10 μg/ml of 5-fluorouracil+1 μg/ml MCC. 5-fluorouracil is an antimetabolite, which interferes with DNA and RNA synthesis.
# B-16 melanoma cells were incubated with 0.01 to 100 μg/ml of cisplatin, with 1 to 100 μg/ml of MCC and with 0.01 to 10 μg/ml of cisplatin+1 μg/ml MCC. Cisplatin is an alkylating agent that cross-links DNA and inhibits DNA precursors.
# B-16 melanoma tumors = assay: Effects of M-DNA and MCC in combination with mitomycin-C on B-16 melanoma tumors in mice; format: in vivo; conditions: nude BALB/c mice, subcutaneous B-16, after 4 weeks of treatment; Group 1 saline, Group 4 mitomycin-C
# Procedure: B-16 melanoma cells are implanted subcutaneously into 30 male nude BALB/c mice and allowed to grow for 10 days. The mice are divided into 6 groups and tumor mass is measured in each mouse. On day 0, Group 1 mice receive saline, Group 2 mice receive M-DNA, Group 3 mice receive MCC, Group 4 mice receive mitomycin-C, Group 5 mice receive M-DNA and mitomycin-C and Group 6 mice receive MCC and mitomycin-C. After 4 weeks of treatment, the mice are sacrificed and the tumor mass and number of metastases are determined. Group 1 mice have the most tumor mass.
# B-16 melanoma cells [2] = assay: Cell cycle analysis, synchronously dividing (MTX) B-16 cells; format: cell-based, murine; conditions: MTX alone
# Procedure: (§1) Cell cycle stage was determined using a CYCLETEST™ PLUS DNA commercial kit (Becton Dickinson, San Jose, Calif., USA). Briefly, nuclei from treated cells were obtained by dissolving the cell membrane in a nonionic detergent, eliminating the cell cytoskeleton and nuclear proteins with trypsin, digesting the cellular RNA with RNase, and stabilizing the nuclear chromatin with spermine. Propidium iodide was added to the cell nuclei and their fluorescence was analyzed in a flow cytometer equipped with electronic doublet discrimination capability (FACSCalibur, Becton Dickinson). Accumulation of cells in GO/G1, S (SE, SM, SL) or G2/M phases of the cell cycle was analyzed using MODFIT LT software (Verity Software House Inc., Topsham, Mass., USA). Results are expressed as percentage of cells in each phase of the cell cycle.
# (§2) To synchronize cell populations, exponentially growing cells were incubated in tissue culture medium containing 0.04 to 0.16 μM methotrexate (MTX) for 20 hours. The MTX medium was removed, cells were washed extensively with phosphate buffered saline (PBS), fresh medium was added, incubation was continued for 8 hours and cell cycle analysis was performed as in Example 4.
# (§3) Exponentially growing Jurkat, HL-60, HL-60MX1 and EL-4 cells, at 1×10^6 cells/ml, and B-16 cells, at 3×10^5 cells/ml, were prepared for analysis as in Example 5 with 0, 10 and 100 μg/ml of MCC in the MTX medium.
# [3] = system: mitoxantrone resistant promyelocytic HL-60MX1 leukemia cells; assay: Cell cycle analysis, synchronously dividing (MTX) HL-60MX1 cells; format: cell-based, human; conditions: MTX alone (0.04 μM)
# Procedure: as §1, §2, §3
# EL-4 lymphoma cells = assay: Cell cycle analysis, synchronously dividing (MTX) EL-4 cells; format: cell-based, murine; conditions: MTX alone (0.16 μM)
# Procedure: as §1, §2, §3
# [4] = system: Jurkat T cell leukemia cells; assay: Cell cycle analysis, synchronously dividing (MTX) Jurkat cells; format: cell-based, human; conditions: MTX alone (0.08 μM)
# Procedure: as §1, §2, §3
# Exponentially growing Jurkat leukemia cells, at 1×10^6 cells/ml, were prepared for analysis as in Example 5 with 0 and 10 μg/ml of MCC and 10 μg/ml DNase I-treated MCC in the MTX medium.
# [5] = system: promyelocytic HL60 leukemia cells (HL-60); assay: Cell cycle analysis, synchronously dividing (MTX) HL-60 cells; format: cell-based, human; conditions: MTX alone (0.04 μM)
# Procedure: as §1, §2, §3
# [6] = 0.1 μg/ml, in the presence of 1 μg/ml MCC
# [7] = 1 μg/ml, in the presence of 1 μg/ml MCC
smiles,measurement,setting,value
CO[C@@]12[C@H](COC(N)=O)C3=C(C(=O)C(C)=C(N)C3=O)N1C[C@@H]1N[C@@H]12 [mitomycin-C],inhibited proliferation,"B-16 melanoma cells [1]; 0.1 μg/ml, agent alone",about 5%
same,inhibited proliferation,B-16 melanoma cells [1]; [6],about 40%
same,inhibited proliferation,"B-16 melanoma cells [1]; 1 μg/ml, agent alone",about 10%
same,inhibited proliferation,B-16 melanoma cells [1]; [7],about 65%
same,inhibited proliferation,"B-16 melanoma cells [1]; 10 μg/ml, agent alone",100%
same,inhibited proliferation,"B-16 melanoma cells [1]; 100 μg/ml, agent alone",100%
same,inhibited proliferation,"B-16 melanoma cells [1]; 100 μg/ml, in the presence of 1 μg/ml MCC",100%
same,"IC50 (concentration for 50% inhibition of B-16 melanoma cell proliferation), Drug + MCC at 1 μg/ml",B-16 melanoma cells [1],0.12 mg/L
same,"IC50 (concentration for 50% inhibition of B-16 melanoma cell proliferation), Drug Alone",B-16 melanoma cells [1],2.2 mg/L
same,tumor mass,B-16 melanoma tumors,less tumor mass than Group 1 mice
"CN(Cc1cnc2nc(N)nc(N)c2n1)c1ccc(C(=O)N[C@@H](CCC(=O)O)C(=O)O)cc1 [MTX, methotrexate]",PERCENTAGE OF CELLS IN EACH PHASE: G0G1 + SE,B-16 melanoma cells [2],48.3%
same,PERCENTAGE OF CELLS IN EACH PHASE: SL + G2M,B-16 melanoma cells [2],46.3%
same,PERCENTAGE OF CELLS IN EACH PHASE: SM,B-16 melanoma cells [2],5.4%
same,PERCENTAGE OF CELLS IN EACH PHASE: G0G1 + SE,[3],46.1%
same,PERCENTAGE OF CELLS IN EACH PHASE: SL + G2M,[3],18.4%
same,PERCENTAGE OF CELLS IN EACH PHASE: SM,[3],35.5%
same,PERCENTAGE OF CELLS IN EACH PHASE: G0G1 + SE,EL-4 lymphoma cells,18.3%
same,PERCENTAGE OF CELLS IN EACH PHASE: SL + G2M,EL-4 lymphoma cells,63.3%
same,PERCENTAGE OF CELLS IN EACH PHASE: SM,EL-4 lymphoma cells,18.4%
same,PERCENTAGE OF CELLS IN EACH PHASE: G0G1 + SE,[4],44.6% and 43.0%
same,PERCENTAGE OF CELLS IN EACH PHASE: SL + G2M,[4],30.1% and 31.4%
same,PERCENTAGE OF CELLS IN EACH PHASE: SM,[4],25.3% and 25.6%
same,PERCENTAGE OF CELLS IN EACH PHASE: G0G1 + SE,[5],50.3%
same,PERCENTAGE OF CELLS IN EACH PHASE: SL + G2M,[5],25.5%
same,PERCENTAGE OF CELLS IN EACH PHASE: SM,[5],24.2%
N.N.[Cl][Pt][Cl] [cisplatin],inhibited proliferation,"B-16 melanoma cells [1]; 0.01 μg/ml, agent alone",0%
same,inhibited proliferation,"B-16 melanoma cells [1]; 0.01 μg/ml, in the presence of 1 μg/ml MCC",about 40%
same,inhibited proliferation,"B-16 melanoma cells [1]; 0.1 μg/ml, agent alone",about 8%
same,inhibited proliferation,B-16 melanoma cells [1]; [6],about 50%
same,inhibited proliferation,"B-16 melanoma cells [1]; 1 μg/ml, agent alone",about 62%
same,inhibited proliferation,B-16 melanoma cells [1]; [7],about 70%
same,inhibited proliferation,"B-16 melanoma cells [1]; 10 μg/ml, agent alone",about 90%
same,inhibited proliferation,"B-16 melanoma cells [1]; 10 μg/ml, in the presence of 1 μg/ml MCC",about 90%
same,inhibited proliferation,"B-16 melanoma cells [1]; 100 μg/ml, agent alone",100%
same,"IC50 (concentration for 50% inhibition of B-16 melanoma cell proliferation), Drug + MCC at 1 μg/ml",B-16 melanoma cells [1],0.16 mg/L
same,"IC50 (concentration for 50% inhibition of B-16 melanoma cell proliferation), Drug Alone",B-16 melanoma cells [1],0.6 mg/L
O=c1[nH]cc(F)c(=O)[nH]1 [5-fluorouracil],inhibition at 0.01 µg/mL,"B-16 melanoma cells [1]; Mus musculus, B16, 72 h, read-out: inhibited proliferation, 0.01 μg/ml, agent alone, 72 h, MTT",~8%
same,inhibition at 0.01 µg/mL,"B-16 melanoma cells [1]; Mus musculus, B16, 72 h, read-out: inhibited proliferation, 0.01 μg/ml, in the presence of 1 μg/ml MCC, 72 h, MTT",~75%
same,inhibition at 0.1 µg/mL,"B-16 melanoma cells [1]; Mus musculus, B16, 72 h, read-out: inhibited proliferation, 0.1 μg/ml, agent alone, 72 h, MTT",~50%
same,inhibition at 0.1 µg/mL,"B-16 melanoma cells [1]; Mus musculus, B16, 72 h, read-out: inhibited proliferation, 0.1 μg/ml, in the presence of 1 μg/ml MCC, 72 h, MTT",~85%
same,inhibition at 1 µg/mL,"B-16 melanoma cells [1]; Mus musculus, B16, 72 h, read-out: inhibited proliferation, 1 μg/ml, agent alone, 72 h, MTT",~90%
same,inhibition at 1 µg/mL,"B-16 melanoma cells [1]; Mus musculus, B16, 72 h, read-out: inhibited proliferation, 1 μg/ml, in the presence of 1 μg/ml MCC, 72 h, MTT",~90%
same,inhibition at 10 µg/mL,"B-16 melanoma cells [1]; Mus musculus, B16, 72 h, read-out: inhibited proliferation, 10 μg/ml, agent alone, 72 h, MTT",100%
same,inhibition at 10 µg/mL,"B-16 melanoma cells [1]; Mus musculus, B16, 72 h, read-out: inhibited proliferation, 10 μg/ml, in the presence of 1 μg/ml MCC, 72 h, MTT",100%
same,inhibition at 100 µg/mL,"B-16 melanoma cells [1]; Mus musculus, B16, 72 h, read-out: inhibited proliferation, 100 μg/ml, agent alone, 72 h, MTT",100%
same,IC50,"B-16 melanoma cells [1]; Mus musculus, read-out: IC50 (concentration for 50% inhibition of B-16 melanoma cell proliferation), Drug + MCC at 1 μg/ml",0.005 mg/L
same,IC50,"B-16 melanoma cells [1]; Mus musculus, read-out: IC50 (concentration for 50% inhibition of B-16 melanoma cell proliferation), Drug Alone",0.12 mg/L
